From patent US20230416262A1, “TRPML MODULATORS” (Casma Therapeutics, Inc., priority 2020, published 2023)

system: TFEB; experiment: TFEB nuclear translocation assay; assay type: cell-based; details: Homo sapiens; HeLa wt or HeLa TRPML1 KO cells, treated for 2 hrs; ratio of nuclear to ring-region TFEB intensity
Experimental: For the TFEB nuclear translocation assay, HeLa wt or HeLa TRPML1 KO cells were plated at 2700 cells/well into black-walled, 384-well Cell carrier Ultra tissue culture treated plates in complete media and incubated overnight. The next day, cells are treated for 2 hrs with compounds and incubated at 37° C. Cells were then fixed for 30 minutes at room temperature in 4% final PFA and washed five times with 90 μL PBS. PBS is aspirated from the wells and the cells are blocked with 7.5 μL blocking buffer (1.1 PBS/Odyssey block buffer containing 0.1% triton x-100 and 1% goat serum). After 30-60 minutes of block, 7.5 μL of primary anti-TFEB (rabbit) antibody is added for a final dilution of 1:200 antibody in 15 μL blocking buffer. Plates are incubated overnight at 4° C. The following day, plates are washed again into PBS, 90 μL with 5 washes, all PBS is aspirated from the wells and the cells are incubated for 1 hr in 1:1000 goat-anti rabbit Alexa 488 secondary antibody, also containing 10 μg/mL Hoechst 33342. After the 1 hr RT incubation, plates are washed a final time into PBS, sealed with foil and imaged with an automated epifluorescence microscopy (PerkinElmer Operetta CLS). Four different fields were imaged per well using ×20 magnification for DAPI and FITC filter sets. Images were quantified using PerkinElmer Harmony software, briefly: apply flatfield correction (basic/advanced) for input images. Use the Find Nuclei building block with channel set at Hoechst to find the nuclei. Use the Find cytoplasm building block with channel set to Alexa 488 to find the cytoplasm. Use select cell region with Channel set at Alexa 488 and region of interest as Nuclei and define outer border at 0 μm and inner at 45 μm to cover complete nuclei. Use select cell region with Channel set at Alexa 488 and region of interest as ring region and define outer border at −5 μm and inner at 0 μm to define a ring around the nucleus. Use the find calculate intensity parameter to calculate intensity of the nuclear region and the ring region. Define results as Number of nuclei and ratio of A/B where A is Intensity of Nuclei and B is intensity of the ring region.

First: Cc1ccc(F)c(CS(=O)(=O)N2CC3(CCCC3)c3ccccc32)c1 [Compound I-47, 1′-[(2-fluoro-5-methylphenyl)methanesulfonyl]-1′,2′-dihydrospiro[cyclopentane-1,3′-indole]]
Second: Cc1cc(S(=O)(=O)N2CC3(CCCC3)c3ccccc32)ccc1F [Compound I-11, 1′-(4-fluoro-3-methylbenzenesulfonyl)-1′,2′-dihydrospiro[cyclopentane-1,3′-indole]]
The EC50 of the first is lower: 2.01 to 8 µM for the first, ≥ 10 µM for the second. The first is the more potent here.

COC(=O)c1ccc(CS(=O)(=O)N2CC3(CCCC3)c3ccccc32)cc1 [Compound I-62, methyl 4-[({1′,2′-dihydrospiro[cyclopentane-1,3′-indol]-1′-yl}sulfonyl)methyl]benzoate] and O=S(=O)(Cc1ccc(F)cc1)N1CC2(CCCC2)c2ccccc21 [Compound I-30, 1′-[(4-fluorophenyl)methanesulfonyl]-1′,2′-dihydrospiro[cyclopentane-1,3′-indole]] cannot be ordered by EC50: ≥ 10 µM for the first, ≥ 10 µM for the second.

Cc1ccc(CS(=O)(=O)N2CC3(CCCC3)c3ccccc32)cc1C [Compound I-14, 1′-[(3,4-dimethylphenyl)methanesulfonyl]-1′,2′-dihydrospiro[cyclopentane-1,3′-indole]] and O=S(=O)(Cc1cccc(Cl)c1)N1CC2(CCCC2)c2ccccc21 [Compound I-46, 1′-[(3-chlorophenyl)methanesulfonyl]-1′,2′-dihydrospiro[cyclopentane-1,3′-indole]] fall in the same range of EC50: 2.01 to 8 µM for the first, 2.01 to 8 µM for the second.

Cc1cc2n(n1)C1(CCCCC1)CN2S(=O)(=O)c1ccc2c(c1)C(C)(C)CO2 [Compound I-147, 1′-[(3,3-dimethyl-2,3-dihydro-1-benzofuran-5-yl)sulfonyl]-6′-methyl-1′,2′-dihydrospiro[cyclohexane-1,3′-pyrazolo[1,5-a]imidazole]] and Cc1cc2n(n1)C1(CCCCC1)CN2S(=O)(=O)c1ccc(S(=N)(=O)N(C)C)cc1 (stereo not drawn) [Compound I-146, N,N-dimethyl-4-({6′-methyl-1′,2′-dihydrospiro[cyclohexane-1,3′-pyrazolo[1,5-a]imidazol]-1′-yl}sulfonyl)benzene-1-sulfonoimidamide] cannot be ordered by EC50: ≥ 10 µM for the first, ≥ 10 µM for the second.

First: O=S(=O)(c1ccc(C2OCCO2)cc1F)N1CC2(CCCC2)c2ccccc21 [Compound I-22, 1′-[4-(1,3-dioxolan-2-yl)-2-fluorobenzenesulfonyl]-1′,2′-dihydrospiro[cyclopentane-1,3′-indole]]
Second: CS(=O)(=O)c1ccc(S(=O)(=O)N2CC3(CCCC3)c3ccccc32)cc1F [Compound I-10, 1′-(3-fluoro-4-methanesulfonylbenzenesulfonyl)-1′,2′-dihydrospiro[cyclopentane-1,3′-indole]]
The EC50 of the first is higher: ≥ 10 µM for the first, 2.01 to 8 µM for the second. The second is the more potent here.

Compared with O=S(=O)(c1cnc(-c2ccccc2)o1)N1CC2(CCCC2)c2ccccc21 [Compound I-39, 1′-[(2-phenyl-1,3-oxazol-5-yl)sulfonyl]-1′,2′-dihydrospiro[cyclopentane-1,3′-indole]], O=S(=O)(C1=Cc2ccccc2OC1)N1CC2(CCCC2)c2ccccc21 [Compound I-41, 1′-(2H-chromene-3-sulfonyl)-1′,2′-dihydrospiro[cyclopentane-1,3′-indole]] is lower in EC50: ≥ 10 µM for the first, 8.01 to 9.99 µM for the second.

Compared with O=S(=O)(Cc1ccccc1)N1CC2(CCCCC2)c2ccccc21 [Compound I-121, 1′-(benzylsulfonyl)spiro[cyclohexane-1,3′-indoline]], CC(CS(=O)(=O)N1CC2(CCCC2)c2ccccc21)c1ccccc1 (stereo not drawn) [Compound I-117, 1′-(2-phenylpropanesulfonyl)-1′,2′-dihydrospiro[cyclopentane-1,3′-indole]] is higher in EC50: ≤ 2 µM for the first, ≥ 10 µM for the second.

O=S(=O)(c1cnn(C2CCC2)c1)N1CC2(CCCC2)c2ccccc21 [Compound I-17, 1′-[(1-cyclobutyl-1H-pyrazol-4-yl)sulfonyl]-1′,2′-dihydrospiro[cyclopentane-1,3′-indole]] and O=S(=O)(c1ccc(Br)cc1)N1CC2(CCCC2)c2ccccc21 [Compound I-32, 1′-(4-bromobenzenesulfonyl)-1′,2′-dihydrospiro[cyclopentane-1,3′-indole]] cannot be ordered by EC50: ≥ 10 µM for the first, ≥ 10 µM for the second.

CN(C)S(=O)(=O)c1ccc(S(=O)(=O)N2CCC3(CCCCC3)c3ccccc32)cc1 [Compound I-128, 4-({2′,3′-dihydro-1′H-spiro[cyclohexane-1,4′-quinolin]-1′-yl}sulfonyl)-N,N-dimethylbenzene-1-sulfonamide] and CN(C)S(=O)(=O)c1ccc(S(=O)(=O)N2CC3(CCOCC3)c3ccccc32)cc1 [Compound I-69, 4-({1,2-dihydrospiro[indole-3,4′-oxan]-1-yl}sulfonyl)-N,N-dimethylbenzene-1-sulfonamide] cannot be ordered by EC50: ≤ 2 µM for the first, ≤ 2 µM for the second.

CN(C)S(=O)(=O)c1ccc(S(=O)(=O)N2CC3(CCN(c4ccc(Cl)cc4F)CC3)c3ccccc32)cc1 [Compound I-106, 4-{[1′-(4-chloro-2-fluorophenyl)-1,2-dihydrospiro[indole-3,4′-piperidin]-1-yl]sulfonyl}-N,N-dimethylbenzene-1-sulfonamide] and CN(C)S(=O)(=O)c1ccc(S(=O)(=O)N2CC3(CCN(CC(F)(F)F)C3)c3ccccc32)cc1 (stereo not drawn) [Compound I-93, N,N-dimethyl-4-{[1′-(2,2,2-trifluoroethyl)-1,2-dihydrospiro[indole-3,3′-pyrrolidin]-1-yl]sulfonyl}benzene-1-sulfonamide] cannot be ordered by EC50: ≤ 2 µM for the first, ≤ 2 µM for the second.

CC(C)(O)c1cccc(S(=O)(=O)N2CC3(CCCC3)c3ccccc32)c1 [Compound I-61, 2-[3-({1′,2′-dihydrospiro[cyclopentane-1,3′-indol]-1′-yl}sulfonyl)phenyl]propan-2-ol] and O=S(=O)(c1ccc2c(c1)COC2)N1CC2(CCCC2)c2ccccc21 [Compound I-36, 1′-(1,3-dihydro-2-benzofuran-5-sulfonyl)-1′,2′-dihydrospiro[cyclopentane-1,3′-indole]] cannot be ordered by EC50: ≥ 10 µM for the first, ≥ 10 µM for the second.

Going from CN(C)S(=O)(=O)c1ccc(S(=O)(=O)N2CC3(CCCO3)c3ccccc32)cc1 (stereo not drawn) [Compound I-77, 4-({1,2-dihydrospiro[indole-3,2′-oxolan]-1-yl}sulfonyl)-N,N-dimethylbenzene-1-sulfonamide] to CN(C)S(=O)(=O)c1ccc(S(=O)(=O)N2CC3(CCCC3)c3cccnc32)cc1 [Compound I-71, 4-({1′,2′-dihydrospiro[cyclopentane-1,3′-pyrrolo[2,3-b]pyridin]-1′-yl}sulfonyl)-N,N-dimethylbenzene-1-sulfonamide], the EC50 rises from ≤ 2 µM to ≥ 10 µM. The first is the more potent here.

First: COC1Cc2ccc(S(=O)(=O)N3CC4(CCCC4)c4ccccc43)cc2C1 (stereo not drawn) [Compound I-8, 1′-[(2-methoxy-2,3-dihydro-1H-inden-5-yl)sulfonyl]-1′,2′-dihydrospiro[cyclopentane-1,3′-indole]]
Second: CC1(C)Cc2cc(S(=O)(=O)N3CC4(CCCC4)c4ccccc43)ccc2C1=O [Compound I-51, 5-({1′,2′-dihydrospiro[cyclopentane-1,3′-indol]-1′-yl}sulfonyl)-2,2-dimethyl-2,3-dihydro-1H-inden-1-one]
The EC50 of the first is higher: ≥ 10 µM for the first, 8.01 to 9.99 µM for the second. The second is the more potent here.

CN(C)S(=O)(=O)c1ccc(S(=O)(=O)N2CC3(CCCCC3)n3nc(C4CC4)cc32)cc1 [Compound I-257, 4-({6′-cyclopropyl-1′,2′-dihydrospiro[cyclohexane-1,3′-pyrazolo[1,5-a]imidazol]-1′-yl}sulfony1)-N,N-dimethylbenzene-1-sulfonamide] was tested, and the EC50 was ≤ 2 µM.
